One experiment concerns intact, female rats. Nature of the experiment: Hematocrit and plasma osmolality during chronic relaxin infusion. The experiment is classed as in vivo, rat. Conditions: for Hematocrit, Difference between baseline and Day 5 / Plasma osmolality, Difference between baseline and Day 5: 4 μg/h s.c. infusion. Here is the method: At the beginning of each experiment, immediately after opening the arterial catheter and before infusion of fluids, 100 μl of blood was collected into a heparinized tube. After centrifugation to separate blood cells from plasma, the latter was frozen at −20° C. until assay for osmolality. Then, three 30-minute baseline urine collections with midpoint blood samples and continuous recording of MAP were made on one or two occasions separated by at least 48 hours, in order to accurately measure control MAP, GFR, ERPF, and ERVR (MAP/ERPF). The hematocrit was also routinely determined on these midpoint blood samples. The renal clearances of IN and PAH were used to assess GFR and ERPF, respectively. […] Next, an osmotic minipump containing purified porcine RLX (4 μg/hour; n=7 rats), rhRLX (4 μg/hour; n=5) or vehicle (n=4) was implanted. MAP, GFR, ERPF, and ERVR were assessed on days 2 and 5 of the infusion, and 5-12 days after depletion of the 7-day minipump. Details of our methodologies for the assessment of GFR and ERPF in chronically instrumented, conscious rats including the measurement of IN and PAH in both plasma and urine have been previously published. Conrad (1984) Kidney Int. 26:24-29; and Danielson and Conrad (1995) J. Clin. Invest. 96:482-490. Circulating relaxin concentrations of 20-40 ng/mL have been measured in rats of 12-14 gestational days. Sherwood et al. (1980) Endocrinol. 107:691-698. An infusion rate of 4 μg/hour for purified porcine RLX or rhRLX would be expected to produce plasma levels of 20-40 ng/mL.
Plasma osmolality was measured using a freezing-point depression instrumentation osmometer (Model 3MO, Advanced Instruments, Needham Heights, Mass.). Plasma and urine IN and PAH were assayed by standard techniques. Urinary sodium concentration was measured by ion selective electrode (Sodium-Potassium Chemistry Module, Beckman Instruments, Inc., Brea, Calif.). Urinary cGMP was determined by specific radioimmunoassay as previously described. Conrad and Vernier (1989) Am. J. Physiol. 257:R847-R853. Urinary NOX was measured by reduction of nitrate to nitrite, the latter determined by the Griess reaction which produces a calorimetric product measured at 540 nm (Nitrate/Nitrite Colorimetric Assay Kit, Cayman Chemical, Ann Arbor, Mich.).
Data are presented as mean±SEM. rhRLX, recombinant human relaxin. RLX was infused at 4 μg/h by osmotic minipump s.c. There were 7, 4, and 5 rats, respectively, in the porcine RLX, vehicle, and rhRLX groups at baseline, and days 2 and 5 of treatment. During the post RLX period, 6, 2, and 2 rats were studied in the porcine RLX, vehicle and rhRLX groups. Two of the rats in the vehicle group received Ringer's solution (vehicle for porcine RLX), and two received 20 mM sodium acetate, pH 5.0 (vehicle for rhRLX). The results were not different, and therefore, the data were combined. *p<0.05 vs baseline, Hp<0.05 RLX vs vehicle.

A further experiment has as its system human subjects. Put plainly: Clinical trial: blood pressure and creatinine clearance. The experiment is classed as in vivo. Here is the method: A clinical trial was conducted with human subjects, age 18 to 70 years. Subjects were treated with either 10 μg relaxin/kg body weight/day (minimum of 36 subjects), 25 μg relaxin/kg body weight/day (minimum of 72 subjects), or placebo (minimum of 72 subjects) for 24 weeks. Administration was by continuous subcutaneous infusion, using a pump. The relaxin was recombinant human relaxin (rhRlx). At various time points, diastolic blood pressure, systolic blood pressure, and creatinine clearance (as a measure of renal function) were measured. Creatinine clearance was calculated using the following formulas:
Creatinine clearance=((140−age)×weight (kg)/72×serum creatinine (mg/dL))×0.85
Creatinine clearance=(140−age)×weight (kg)/72×serum creatinine (mg/dL)
The change in each measured parameter was calculated (value at week x-week 0 value). […] The threshold for obtaining this effect was greater than 10 μg rhRLXN/kg/day. […] This latter result indicates an increase in blood flow.

In a further experiment the test system is human cardiac cells. Put plainly: VEGF protein secreted by human cardiac cells. Conditions: 100 ng/ml, 24 hr. In kind it is cell-based. The protocol: Consistent with RT-PCR data, relaxin stimulated a small but significant dose-related increase in levels of VEGF protein secreted by human cardiac. Cells were seeded in 35 mm wells at 2.5×10^5 cells per well 24 hours prior to treatment with relaxin. Cells were washed twice with SmBM (no supplements) and incubated for 2 hr with SmBM treatment medium (containing 400 pg/ml bFGF, gentamycin, amphoteracin B, and 2% fetal calf serum) at 37° C., 5% CO2. The medium was then replaced with SmBM treatment medium without relaxin or with concentrations of relaxin from 0.1 ng/ml to 100 ng/ml. Cells were then incubated for 24 hr (37° C., 5% CO2).

Experiment [1] concerns ischemic wound on the back region of rats. Put plainly: Ischemic H-shaped double flap wound model. The experiment is classed as in vivo, rat. Here is the method:
The effect of rhRLX on normal and ischemic wound healing in two rat models of dermal wound healing was evaluated. RhRLX in vehicle, or vehicle alone, was delivered by subcutaneous infusion to Sprague-Dawley rats using an implanted ALZET7 osmotic pump (Alza Corp., Mountain View, Calif.).
In the second model, a standardized ischemic, H-shaped, double flap wound was made on the back region. The area of surface necrosis was measured on day 14 and day 21.
In the third animal model, a standard ischemic wound (H-shaped, 8 cm long and 2 cm wide) was created on the back region of rats. Perforating branches of the central vein were cut to ensure that the wound was ischemic. The resulting wound is then ischemic, but not completely necrotic. On day 14 and day 21, the surface necrosis was measured. RhRlx treatment (0.2 mg/kg via minipump) reduced the surface necrotic area in the flap region, compared to vehicle treatment (at day 14: vehicle 195 mm^2, rhRlx 123 mm^2; at day 21 vehicle 180 mm^2, rhRlx 103 mm^2).

The next experiment deals with endothelial cells. Put plainly: Binding of 32P-labelled relaxin to endothelial cells.
Setting [2] is: Baseline, before 4 μg/h s.c. minipump.

Marks after values point to notes of the source that are not given here.

“Porcine RLX: lyophilized, purified porcine relaxin (Sherwood and O'Byrne 1974), dissolved in Ringer's solution”: the “Hematocrit, Difference between baseline and Day 5” value in the experiment on intact, female rats was −4 ± 1 %. For the same substance, the “Plasma osmolality, Difference between baseline and Day 5” value in the experiment on intact, female rats was −14 ± 3 mOsm/kg H2O. Further, the Hematocrit in the experiment with intact, female rats (setting [2]) was 42 ± 1%; in the experiment on intact, female rats (Day 2 of 4 μg/h s.c. infusion) it was 39 ± 1* %; with intact, female rats (Day 5 of 4 μg/h s.c. infusion) it was 37 ± 1*† %; with intact, female rats (Post RLX Day 5-12), 40 ± 1%. Also, the Plasma osmolality with intact, female rats (setting [2]) is 301 ± 2 mOsm/kg H2O; in the experiment on intact, female rats (Day 2 of 4 μg/h s.c. infusion), 289 ± 2*† mOsm/kg H2O; in the experiment with intact, female rats (Day 5 of 4 μg/h s.c. infusion), 287 ± 2*† mOsm/kg H2O; in the experiment on intact, female rats (Post RLX Day 5-12), 299 ± 2 mOsm/kg H2O.

Regarding “rhRLX: recombinant human relaxin, identical in amino acid sequence to the product of the human H2 gene; A chain of 24, B chain of 29 amino acids”, the “renal function, as measured by creatinine clearance” value in the experiment on human subjects (10 μg rhRLXN/kg/day (FIG. 12)) and with human subjects (25 μg rhRLXN/kg/day (FIG. 13)) was “improvement” each time. For the same substance, the diastolic pressure entry in the experiment on human subjects (25 μg/kg/day s.c. infusion, about week 2 through week 24 (FIG. 10)) is “reduced”. Further, the systolic pressure entry in the experiment with human subjects (25 μg/kg/day s.c. infusion, about week 2 through week 24 (FIG. 11)) is “reduced”. Moreover, the “threshold for reducing diastolic and systolic pressure” value in the experiment with human subjects (human, in vivo) is recorded as “greater than 10 μg rhRLXN/kg/day”. In the experiment with human cardiac cells, the “VEGF secretion, maximum induction over control levels” value is on record as 155%. For the same substance, the “surface necrotic area in the flap region” value in experiment [1] (0.2 mg/kg via minipump, day 14) came out at 123 mm^2; in experiment [1] (0.2 mg/kg via minipump, day 21), 103 mm^2; in experiment [1] (Example 4, day not stated), 123 mm^2. In experiment [1] (immunohistochemical staining, systemic treatment), the “expression of NO synthase on vascular endothelium” value is “enhances”. In addition, in the experiment with intact, female rats, the “Hematocrit, Difference between baseline and Day 5” value is −2 ± 1 %. For the same substance, the “Plasma osmolality, Difference between baseline and Day 5” value in the experiment on intact, female rats is −12 ± 2 mOsm/kg H2O. For the same substance, the Hematocrit in the experiment with intact, female rats (setting [2]) was 39 ± 0%; with intact, female rats (Day 2 of 4 μg/h s.c. infusion) it was 37 ± 1* %; in the experiment on intact, female rats (Day 5 of 4 μg/h s.c. infusion) it was 37 ± 1*† %; in the experiment with intact, female rats (Post RLX Day 5-12), 40%. Moreover, the Plasma osmolality in the experiment on intact, female rats (setting [2]) is on record as 299 ± 2 mOsm/kg H2O; in the experiment on intact, female rats (Day 2 of 4 μg/h s.c. infusion), 291 ± 3*† mOsm/kg H2O; in the experiment with intact, female rats (Day 5 of 4 μg/h s.c. infusion) it was 286 ± 2*† mOsm/kg H2O; in the experiment with intact, female rats (Post RLX Day 5-12) it was 302 mOsm/kg H2O. Further, the “binding of 32P-labelled relaxin to endothelial cells” value with endothelial cells is “could not be detected”.

These data come from patent US6723702B2, “Use of relaxin treat diseases related to vasoconstriction” (RAS Medical, Inc., priority 2000, dated 2004).
